# Results from patent US20130072505A1, “6,9-Disubstituted Purine Derivatives and Their Use for Treating Skin” (priority 2006, published 2013).
# Entries after “also recorded” stand apart in the source; their conditions may differ. Like-named read-outs stand apart in the source and are kept apart here. Marks after values point to notes of the source that are not given here.
# What was measured:
# breast carcinoma MCF-7 = assay: in vitro cytotoxic activity, Calcein AM microtiter assay; assay type: cell-based; conditions: Homo sapiens, MCF7; 72 hours; highest concentration 166.7 μM
# Experimental: (§1) In vitro cytotoxic activity of several of the 6,9-disubstituted purine derivatives of this invention was determined using a microtiter assay with Calcein AM and a panel of cell lines of different histogenetic and species origin; kinetin was also examined as a control. Because only metabolically active cells cleave Calcein AM (tetraacetoxymethyl ester of calcein), the intracellular concentration of calcein corresponds to the number of vital cells in the culture.
# (§2) The following cell lines were used: human osteosarcoma (HOS); breast carcinoma MCF-7; human myeloid leukemia K-562; and mouse fibroblasts NIH3T3. The cells were maintained in Nunc/Corning 80 cm^2 plastic tissue culture flasks and cultured in cell culture medium (DMEM with 5 g/l glucose, 2 mM glutamine, 100 U/ml penicillin, 100 μg/ml streptomycin, 10% fetal calf serum, and sodium bicarbonate).
# (§3) The cell suspensions were prepared and diluted according to the particular cell type and the expected target cell density (2.500-30.000 cells per well based on cell growth characteristics) were added by pipette (80 μl) into 96/well microtiter plates. Inoculates were allowed a pre-incubation period of 24 hours at 37° C. and 5% CO2 for stabilization. Four-fold dilutions of the intended test concentration were added at time zero in 20 μl aliquots to the microtiter plate wells. The test compounds were generally evaluated at six 4-fold dilutions. The highest well concentration used in the present study was 166.7 μM. All samples were examined in triplicates. Incubations of cells with the tested compounds was for 72 hours at 37° C., in 5% CO2 atmosphere and 100% humidity. At the end of the incubation period, Calcein AM was added to a final concentration of 1 μg/ml incubated for 1 hour. Fluorescence intensity (FI) was measured with a Labsystem FIA Reader Fluoroscan Ascent (UK). The cell survival (GI50) was calculated using the following equation: GI50=([…])/(mean FIcontrol well−mean FIblank)×100%. The GI50 value, the drug concentration lethal to 50% of the cells, was calculated from the obtained dose response curves.
# human osteosarcoma (HOS) = assay: as above; assay type: cell-based; conditions: 72 hours, highest concentration 166.7 μM
# Experimental: as §1, §2, §3
# mouse fibroblasts NIH3T3 = assay: as above; assay type: cell-based; conditions: read-out: GI50 NIH-3T3
# Experimental: as §1, §2, §3
# [1] = system: Human forskin fibroblasts (cell line BJ); assay: in vitro cytotoxic activity, MTT assay; assay type: cell-based; conditions: 72 hours; BJ fibroblasts at middle passage
# Experimental: In vitro cytotoxic activity of several of the 6,9-disubstituted purine derivatives of this invention against human diploid fibroblasts was determined by standard MTT assay optimized for 96-well plates. The assay is based on spectrofotometric measurement of the product of metabolic conversion of MTT by mitochondria of living cells.
# Human forskin fibroblasts (cell line BJ) at middle passage were maintained in 75 cm^2 plastic tissue culture flasks and cultured in cell culture medium (DMEM with 5 g/l glucose, 2 mM glutamine, 100 U/ml penicillin, 100 μg/ml streptomycin, 10% fetal calf serum, and sodium bicarbonate).
# About 5,000 cells were seeded per well of the 96-well plate. After 24 hours the cell culture medium was replaced with the cell culture medium containing a test compound. The test compounds were evaluated at six 2-fold dilutions. The highest concentration used in the present study was usually 200 μM. In the case of compounds with limited solubility in the culture medium the highest concentration was adjusted. Every test compound was examined in five replicates. Cells with the test compounds were incubated for 72 hours at 37° C. in 5% CO2 atmosphere and 100% humidity. At the end of the incubation period, the culture medium was replaced with the cell culture medium containing MTT (0.5 mg/ml) and cells were incubated for another 3 hours. The formazan formed was solubilized by DMSO and absorbance at 570 nm was measured. Ability of the tested compounds to inhibit MTT reducing activity of the cells was calculated as IC=(Acompound exposed well−mean Ablank)/(mean Acontrol well−meanAblank)×100%. IC10, the drug concentration causing 10% decrease in MTT reducing activity, was calculated from the obtained dose response curves.
# [2] = system: Rat C6 glioma (ATCC No. CCL107); assay: anti-inflammatory activity: isoproterenol-induced intracellular cAMP synthesis; assay type: cell-based; conditions: cAMP after 30 min with (−)-isoproterenol; for IC50: Rattus norvegicus, C6 glioma, 0.5 h, read-out: Anti-inflammatory Activity I50
# Experimental: Anti-inflammatory activity of several of the 6,9-disubstituted purine derivatives of this invention was determined; kinetin was also evaluated as a control. Rat C6 glioma (ATCC No. CCL107) was cultivated in monolayer in serum-free chemically defined medium containing Ham's F10/minimal essential medium (1:1 v/v), 2 mM L-glutamine, 1% (v/v) minimal essential medium vitamins (100×), 1% (v/v) minimal essential medium nonessential amino acids (100×), 100 U/ml penicillin, […], and 30 nM sodium selenite. Incubation was performed at 37° C. in a humidified atmosphere. The assays were performed in the logaritmic growth phase at a density of 2.5×10^5 cells/cm^2. Intracellular cAMP synthesis was induced by addition of 5 mM (−)-isoproterenol; various amounts of test compounds were added at the same time as the (−)-isoproterenol. After 30 min incubation at 37° C., the medium was removed and the cellular amount of cAMP was determined using the cAMP-enzyme immunoassay kit from Amersham. The I50 value was determined from a dose-response curve in duplicate.
# [3] = system: Human diploid fibroblasts (HCA cells); assay: inhibition of senescence, β-galactosidase staining; assay type: cell-based; conditions: test compounds about 50 μM at each passage; for Senescent Cells (%) HCA25: passage 25; for Senescent Cells (%) HCA80: passage 80
# Experimental: Inhibition of senescence by several of the 6,9-disubstituted purine derivatives of this invention was determined; kinetin was also evaluated as a control. […] The medium used for the cell cultivation was removed, the cells were washed twice in PBS, and fixed in 2-3 ml of fixing solution comprised of a 2% formaldehyde and 0.2% glutaraldehyde in PBS. The cells were incubated at room temperature for 5 minutes, and then washed twice with PBS. The cells were subsequently incubated at 37° C. (without CO2) for 1 to 16 hours in 2-3 ml of the solution comprising potassium ferricyanide (5 mM), potassium ferrocyanide (5 mM), MgCl2 (2 mM), X-gal (5-bromo-4-chloro-3-indolyl-β-D-galactopyranoside) (1 mg/ml), in citric/phosphate buffer (pH 6.0). The test compounds (about 50 μM) were added to the medium at each passage. […] In this experiment, only senescent cells were stained blue due to the action of β-galactosidase on the substrate.
# [4] = system: human myeloid leukemia K-562; assay: in vitro cytotoxic activity, Calcein AM microtiter assay; assay type: cell-based; conditions: K562, 72 hours, highest concentration 166.7 μM
# Experimental: as §1, §2, §3
# photodamaged facial skin = assay: earlier clinical study of topically applied kinetin (0.1%); assay type: in vivo, human; conditions: kinetin 0.1% topical; for Mean Improvement from Baseline: Coarse Wrinkles / Mean Improvement from Baseline: Fine Wrinkles / Mean Improvement from Baseline: Mottled Hyperpigmentation / Mean Improvement from Baseline: Overall Skin Condition / Mean Improvement from Baseline: Roughness: expert evaluation; for Subjects Reporting Improvement from Baseline: Blotchiness / Subjects Reporting Improvement from Baseline: Color / Subjects Reporting Improvement from Baseline: Fine Wrinkles / Subjects Reporting Improvement from Baseline: Texture: self assessment
# Source text: This Example compares the clinical data for topically applied 6-furfurylamino-9-(2-tetrahydropyranyl)purine (0.10%) taken from Example 23 with similar clinical data generated for topically applied kinetin (0.1%) from an earlier study. The protocol for the earlier clinical trial for kinetin was similar to the protocol as described in Example 23 for the inventive compound; thirty two female volunteers completed the earlier kinetin study. This comparison is based on the expert evaluations and self evaluations of skin condition for eight and twelve week data for some of the parameters evaluated in both studies.
# [5] = system: cultured human fibroblasts; conditions: cited from earlier work
# [6] = NIH3T3, 72 hours, highest concentration 166.7 μM
compound,measurement,setting,value
"COc1cccc(CNc2ncnc3c2ncn3C2CCCCO2)c1OC (stereo not shown) [6-(2,3-dimethoxybenzylamino)-9-(2-tetrahydropyranyl)purine]",GI50,breast carcinoma MCF-7,> 167 µM
same,GI50,human osteosarcoma (HOS),> 167 µM
same,GI50,mouse fibroblasts NIH3T3; [6],> 167 µM
"COc1cc(CNc2ncnc3c2ncn3C2CCCCO2)cc(OC)c1 (stereo not shown) [6-(3,5-dimethoxybenzylamino)-9-(2-tetrahydropyranyl)purine]",GI50,breast carcinoma MCF-7,> 167 µM
same,GI50,human osteosarcoma (HOS),> 167 µM
same,GI50,mouse fibroblasts NIH3T3; [6],> 167 µM
same,IC10 (concentration causing 10% decrease in MTT reducing activity),[1],>200 µM
same,IC50,[2],11 µM
same,Anti-inflammatory Activity Effect,[2],Inhibition
COc1cccc(CNc2ncnc3c2ncn3C2CCCO2)c1 (stereo not shown) [6-(3-methoxybenzylamino)-9-(2-tetrahydrofuranyl)purine],GI50,breast carcinoma MCF-7,> 167 µM
same,GI50,human osteosarcoma (HOS),> 167 µM
same,GI50,mouse fibroblasts NIH3T3; [6],> 167 µM
same,melting point,,87 to 88 °C
COc1cccc(CNc2ncnc3c2ncn3C2CCCCO2)c1 (stereo not shown) [6-(3-methoxybenzylamino)-9-(2-tetrahydropyranyl)purine],IC10 (concentration causing 10% decrease in MTT reducing activity),[1],>100 µM
same,Senescent Cells (%) HCA50,[3],5%
same,Senescent Cells (%) HCA25,[3],5%
same,Senescent Cells (%) HCA80,[3],24%
same,IC50,[2],7 µM
same,Anti-inflammatory Activity Effect,[2],Inhibition
same,melting point,,134 to 135 °C
COc1ccc(CNc2ncnc3c2ncn3C2CCCO2)cc1 (stereo not shown) [6-(4-methoxybenzylamino)-9-(2-tetrahydrofuranyl)purine],GI50,breast carcinoma MCF-7,> 167 µM
same,GI50,human osteosarcoma (HOS),> 167 µM
same,GI50,mouse fibroblasts NIH3T3; [6],> 167 µM
same,melting point,,182 to 183 °C
COc1ccc(CNc2ncnc3c2ncn3C2CCCCO2)cc1 (stereo not shown) [6-(4-methoxybenzylamino)-9-(2-tetrahydropyranyl)purine],GI50,breast carcinoma MCF-7,> 167 µM
same,GI50,[4],> 167 µM
same,GI50,human osteosarcoma (HOS),> 167 µM
same,GI50,mouse fibroblasts NIH3T3; [6],> 167 µM
same,IC10 (concentration causing 10% decrease in MTT reducing activity),[1],>100 µM
same,Senescent Cells (%) HCA50,[3],3%
same,Senescent Cells (%) HCA25,[3],4%
same,Senescent Cells (%) HCA80,[3],26%
same,melting point,,137 to 138 °C
c1ccc(Nc2ncnc3c2ncn3C2CCCCO2)cc1 (stereo not shown) [6-phenylamino-9-(2-tetrahydropyranyl)purine],IC50,[2],45 µM
same,Anti-inflammatory Activity Effect,[2],Inhibition
"c1coc(CNc2ncnc3nc[nH]c23)c1 [Kinetin, N6-furfuryl-adenine]",GI50,breast carcinoma MCF-7,> 167 µM
same,GI50,[4],164 µM
same,GI50,human osteosarcoma (HOS),> 167 µM
same,GI50,"mouse fibroblasts NIH3T3; NIH3T3, 72 h",155 µM
same,Senescent Cells (%) HCA50,[3],5%
same,Senescent Cells (%) HCA25,[3],3%
same,Senescent Cells (%) HCA80,[3],38%
same,Anti-inflammatory Activity Effect,[2],inactive; also recorded: Not active
same,Mean Improvement from Baseline: Coarse Wrinkles,photodamaged facial skin; Eight Week Data,4%
same,Mean Improvement from Baseline: Fine Wrinkles,photodamaged facial skin; Eight Week Data,2%
same,Mean Improvement from Baseline: Mottled Hyperpigmentation,photodamaged facial skin; Eight Week Data,25%*
same,Mean Improvement from Baseline: Overall Skin Condition,photodamaged facial skin; Eight Week Data,3%
same,Mean Improvement from Baseline: Roughness,photodamaged facial skin; Eight Week Data,35%
same,Mean Improvement from Baseline: TEWL,photodamaged facial skin; Eight Week Data,13%
same,Subjects Reporting Improvement from Baseline: Blotchiness,photodamaged facial skin; Eight Week Data,50%
same,Subjects Reporting Improvement from Baseline: Color,photodamaged facial skin; Eight Week Data,53%
same,Subjects Reporting Improvement from Baseline: Fine Wrinkles,photodamaged facial skin; Eight Week Data,57%
same,Subjects Reporting Improvement from Baseline: Texture,photodamaged facial skin; Eight Week Data,77%
same,Mean Improvement from Baseline: Coarse Wrinkles,photodamaged facial skin; Twelve Week Data,4%
same,Mean Improvement from Baseline: Fine Wrinkles,photodamaged facial skin; Twelve Week Data,6%*
same,Mean Improvement from Baseline: Mottled Hyperpigmentation,photodamaged facial skin; Twelve Week Data,25%*
same,Mean Improvement from Baseline: Overall Skin Condition,photodamaged facial skin; Twelve Week Data,4%*
same,Mean Improvement from Baseline: Roughness,photodamaged facial skin; Twelve Week Data,52%*
same,Mean Improvement from Baseline: TEWL,photodamaged facial skin; Twelve Week Data,15%
same,Subjects Reporting Improvement from Baseline: Blotchiness,photodamaged facial skin; Twelve Week Data,74%
same,Subjects Reporting Improvement from Baseline: Color,photodamaged facial skin; Twelve Week Data,71%
same,Subjects Reporting Improvement from Baseline: Fine Wrinkles,photodamaged facial skin; Twelve Week Data,71%
same,Subjects Reporting Improvement from Baseline: Texture,photodamaged facial skin; Twelve Week Data,87%
same,morphological and biochemical characteristics associated with serial passaging of cells,[5],delayed the onset and decreased the extent of many morphological and biochemical characteristics associated with serial passaging of cells
